PubChem BioAssay AID330 (DTP/NCI, 2004)
Values joined by “and” are separate entries in the source; they are usually repeats but may differ in a detail not shown here. Equal entries are not always repeated. Inconclusive results and toxic doses are left out. Rule for the calls: active = survival T/C of 150% or more; inactive = T/C below 125% in these data.

System: P388 leukemia ip, CD2F1 mice, survival T/C
Test: NCI In Vivo Anticancer Drug Screen. Data for tumor model P388 Leukemia (intraperitoneal) in CD2F1 (CDF1) mice
Conditions: endpoint: median survival time, higher = longer survival
In short: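 Mice carrying the transplanted tumor received test compound or vehicle. Survival was recorded in each group, and the value is the treated-group measurement divided by that of the vehicle-treated control group.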

[1] = dose: 12.5 mg/kg/injection, schedule: Q01DX009 (ip), vehicle: saline
[2] = dose: 50.0 mg/kg/injection, schedule: Q01DX009 (ip), vehicle: saline
[3] = dose: 12.5 mg/kg/injection, schedule: Q01DX009 (ip), vehicle: saline with Tween-80
[4] = dose: 25.0 mg/kg/injection, schedule: Q04DX003 (ip), vehicle: saline with Tween-80
[5] = dose: 50.0 mg/kg/injection, schedule: Q04DX003 (ip), vehicle: saline with Tween-80
[6] = dose: 100.0 mg/kg/injection, schedule: Q01DX009 (ip), vehicle: saline
[7] = dose: 200.0 mg/kg/injection, schedule: Q01DX009 (ip), vehicle: saline
[8] = dose: 50.0 mg/kg/injection, schedule: Q01DX005 (ip), vehicle: Klucel (hydroxypropylcellulose) (HPC)
[9] = dose: 100.0 mg/kg/injection, schedule: Q01DX005 (ip), vehicle: Klucel (hydroxypropylcellulose) (HPC)
[10] = dose: 100.0 mg/kg/injection, schedule: Q01DX009 (ip), vehicle: saline with Tween-80
[11] = dose: 200.0 mg/kg/injection, schedule: Q01DX009 (ip), vehicle: saline with Tween-80
[12] = dose: 400.0 mg/kg/injection, schedule: Q01DX009 (ip), vehicle: saline with Tween-80
[13] = dose: 25.0 mg/kg/injection, schedule: Q01DX005 (ip), vehicle: saline with Tween-80
[14] = dose: 50.0 mg/kg/injection, schedule: Q01DX005 (ip), vehicle: saline with Tween-80
[15] = dose: 100.0 mg/kg/injection, schedule: Q01DX005 (ip), vehicle: saline with Tween-80
[16] = dose: 200.0 mg/kg/injection, schedule: Q01DX005 (ip), vehicle: saline with Tween-80

Measured: T/C

CCC[CH2][Sn]([CH3])([CH2]CC[N+](C)(C)C)[O]C(C)=O (centres undefined)
inactive: [1] 105 % of control | dose: 25.0 mg/kg/injection, schedule: Q01DX009 (ip), vehicle: saline 106 % of control | [2] 100 % of control and 115 % of control

O=NN(CCCl)C(=O)NC1CC2CCC1C2 (centres undefined)
inactive: dose: 50.0 mg/kg/injection, schedule: Q01DX009 (ip), vehicle: saline with Tween-80 109 % of control | dose: 75.0 mg/kg/injection, schedule: Q04DX003 (ip), vehicle: saline with Tween-80 90 % of control
active: [3] 195 % of control | dose: 25.0 mg/kg/injection, schedule: Q01DX009 (ip), vehicle: saline with Tween-80 250 % of control | [4] 225 % of control | dose: 33.0 mg/kg/injection, schedule: Q04DX003 (ip), vehicle: saline with Tween-80 213 % of control | [5] 204 % of control and 295 % of control

CCOC(=O)C(Cc1c[nH]c2ccccc12)NCCNc1ccccc1 (centres undefined)
inactive: [2] 91 % of control | [6] 91 % of control | [7] 99 % of control

CCN(CC)CCOc1ccccc1/C=C/c1noc2ccccc12
inactive: dose: 15.0 mg/kg/injection, schedule: Q01DX005 (ip), vehicle: saline 94 % of control | dose: 30.0 mg/kg/injection, schedule: Q01DX005 (ip), vehicle: saline 91 % of control | dose: 60.0 mg/kg/injection, schedule: Q01DX005 (ip), vehicle: saline 98 % of control

O=C1C(Cl)=C(Nc2ccc3c(c2NC2=C(Cl)C(=O)c4ccccc4C2=O)C(=O)c2ccccc2C3=O)C(=O)c2ccccc21
inactive: [8] 97 % of control | [9] 99 % of control

CCOC(=O)/C=C(/C)SC1=CC(=O)c2ccccc2C1=O
inactive: dose: 1.56 mg/kg/injection, schedule: Q01DX009 (ip), vehicle: saline 91 % of control | dose: 6.25 mg/kg/injection, schedule: Q01DX009 (ip), vehicle: saline 98 % of control | [3] 119 % of control | [1] 100 % of control

OC1(c2ccccc2)CN(Cc2ccccc2)CC(c2ccccc2)O1 (centres undefined)
inactive: [10] 98 % of control | [11] 100 % of control | [12] 106 % of control

O=C(NC(=O)c1c(F)cccc1F)Nc1ccc(Cl)cn1
inactive: dose: 50.0 mg/kg/injection, schedule: Q04DX002 (ip), vehicle: saline with Tween-80 95 % of control | dose: 100.0 mg/kg/injection, schedule: Q04DX002 (ip), vehicle: saline with Tween-80 100 % of control | dose: 200.0 mg/kg/injection, schedule: Q04DX002 (ip), vehicle: saline with Tween-80 98 % of control

CC(C)NC(=O)OCc1c(COC(=O)NC(C)C)c2n(c1-c1ccc(Cl)c(Cl)c1)CCS2=O (centres undefined)
inactive: [13] 100 % of control | [14] 97 % of control | [15] 87 % of control

N=C(N)c1ccc(N=Nc2cc(N=Nc3ccc(C(=N)N)cc3)c(O)cc2O)cc1
inactive: [8] 92 % of control | [9] 92 % of control | dose: 200.0 mg/kg/injection, schedule: Q01DX005 (ip), vehicle: Klucel (hydroxypropylcellulose) (HPC) 100 % of control

CC1=C(C)C(=O)c2cc3c(-c4ccccc4)oc(-c4ccccc4)c3cc2C1=O
inactive: dose: 12.5 mg/kg/injection, schedule: Q01DX005 (ip), vehicle: saline with Tween-80 93 % of control | [13] 95 % of control | [14] 86 % of control and 96 % of control

S=C(S)n1nc(-c2ccccc2)c(N=Nc2ccc(Cl)cc2Cl)c1-c1ccccc1
inactive: [14] 94 % of control | [15] 89 % of control | [16] 89 % of control

O=[N+]([O-])c1ccc(N/N=C\c2c(Cl)[nH]c3ccccc23)cc1
inactive: dose: 100.0 mg/kg/injection, schedule: Q04DX002 (ip), vehicle: saline + alcohol 86 % of control | dose: 200.0 mg/kg/injection, schedule: Q04DX002 (ip), vehicle: saline + alcohol 98 % of control | dose: 400.0 mg/kg/injection, schedule: Q04DX002 (ip), vehicle: saline + alcohol 104 % of control

CCn1cnc(-c2ccccc2)c1-c1ccccc1
inactive: [4] 109 % of control | [5] 100 % of control

CN1CNC(=O)NC1
inactive: [2] 107 % of control | [6] 100 % of control and 106 % of control | [7] 99 % of control and 101 % of control

COc1cc2c(c(OC)c1OC)-c1ccc(S(=O)(=O)Cc3ccccc3)c(=O)cc1C(NC(C)=O)CC2 (centres undefined)
inactive: dose: 0.78 mg/kg/injection, schedule: Q01DX009 (ip), vehicle: Klucel (hydroxypropylcellulose) (HPC) 95 % of control | dose: 1.56 mg/kg/injection, schedule: Q01DX009 (ip), vehicle: Klucel (hydroxypropylcellulose) (HPC) 105 % of control and 106 % of control and 117 % of control | dose: 3.12 mg/kg/injection, schedule: Q01DX009 (ip), vehicle: Klucel (hydroxypropylcellulose) (HPC) 100 % of control and 107 % of control and 115 % of control | dose: 6.25 mg/kg/injection, schedule: Q01DX009 (ip), vehicle: Klucel (hydroxypropylcellulose) (HPC) 104 % of control and 107 % of control and 96 % of control | dose: 12.5 mg/kg/injection, schedule: Q01DX009 (ip), vehicle: Klucel (hydroxypropylcellulose) (HPC) 105 % of control and 109 % of control and 113 % of control | dose: 25.0 mg/kg/injection, schedule: Q01DX009 (ip), vehicle: Klucel (hydroxypropylcellulose) (HPC) 98 % of control and 101 % of control and 88 % of control

CC(C)C12OC1C1OC13C1(C)CCC4=C(COC4=O)C1CC1OC13C2=O (centres undefined)
inactive: dose: 2.5 mg/kg/injection, schedule: Q01DX005 (ip), vehicle: saline + alcohol 110 % of control | dose: 5.0 mg/kg/injection, schedule: Q01DX005 (ip), vehicle: saline + alcohol 100 % of control | dose: 20.0 mg/kg/injection, schedule: Q01DX005 (ip), vehicle: saline + alcohol 114 % of control

CC(CO)CC(C)(C)C (centres undefined)
inactive: dose: 25.0 mg/kg/injection, schedule: Q01DX005 (ip), vehicle: saline 101 % of control | dose: 50.0 mg/kg/injection, schedule: Q01DX005 (ip), vehicle: saline 108 % of control | dose: 100.0 mg/kg/injection, schedule: Q01DX005 (ip), vehicle: saline 104 % of control | dose: 200.0 mg/kg/injection, schedule: Q01DX005 (ip), vehicle: saline 109 % of control

Cc1[nH]nc2c1CC(c1ccccc1)NC2=O (centres undefined)
inactive: [14] 92 % of control | [15] 94 % of control | [16] 94 % of control

COC1/C=C/O[C@@]2(C)Oc3c(C)c(O)c4c(O)c(cc(O)c4c3C2=O)NC(=O)/C(C)=C\C=C\[C@H](C)C(O)[C@@H](C)[C@@H](O)[C@@H](C)[C@H](OC(C)=O)[C@@H]1C (some centres undefined)
inactive: dose: 6.25 mg/kg/injection, schedule: Q03HX024 (ip), vehicle: saline 100 % of control | dose: 12.5 mg/kg/injection, schedule: Q03HX024 (ip), vehicle: saline 110 % of control | dose: 25.0 mg/kg/injection, schedule: Q03HX024 (ip), vehicle: saline 100 % of control | dose: 50.0 mg/kg/injection, schedule: Q03HX024 (ip), vehicle: saline 100 % of control | [10] 90 % of control | dose: 100.0 mg/kg/injection, schedule: Q03HX024 (ip), vehicle: saline 100 % of control | dose: 100.0 mg/kg/injection, schedule: Q04DX003 (ip), vehicle: saline sonified 100 % of control | [11] 109 % of control | dose: 200.0 mg/kg/injection, schedule: Q04DX003 (ip), vehicle: saline sonified 100 % of control | [12] 118 % of control | dose: 400.0 mg/kg/injection, schedule: Q04DX003 (ip), vehicle: saline sonified 109 % of control

CC(=O)Oc1ccc(OC(C)=O)c(CBr)c1CBr
inactive: dose: 25.0 mg/kg/injection, schedule: Q04DX002 (ip), vehicle: Klucel (hydroxypropylcellulose) (HPC) 100 % of control | dose: 50.0 mg/kg/injection, schedule: Q04DX002 (ip), vehicle: Klucel (hydroxypropylcellulose) (HPC) 95 % of control | dose: 100.0 mg/kg/injection, schedule: Q04DX002 (ip), vehicle: Klucel (hydroxypropylcellulose) (HPC) 87 % of control and 93 % of control

O=C(O)Cc1cn2ccncc2n1
inactive: dose: 100.0 mg/kg/injection, schedule: Q01DX001 (ip), vehicle: Klucel (hydroxypropylcellulose) (HPC) 90 % of control | dose: 200.0 mg/kg/injection, schedule: Q01DX001 (ip), vehicle: Klucel (hydroxypropylcellulose) (HPC) 101 % of control | dose: 400.0 mg/kg/injection, schedule: Q01DX001 (ip), vehicle: Klucel (hydroxypropylcellulose) (HPC) 101 % of control

O=C1CSC(c2ccc(F)cc2)N1CCN1C(=O)CSC1c1ccc(F)cc1 (centres undefined)
inactive: dose: 60.0 mg/kg/injection, schedule: Q01DX005 (ip), vehicle: saline with Tween-80 106 % of control | dose: 120.0 mg/kg/injection, schedule: Q01DX005 (ip), vehicle: saline with Tween-80 100 % of control | dose: 240.0 mg/kg/injection, schedule: Q01DX005 (ip), vehicle: saline with Tween-80 95 % of control
